The results in this text go back to patent US8618088B2, “Methods of inhibiting choroidal neovascularization” (University of Pennsylvania, priority 2002, dated 2013).

One series can be described thus: Solubility in water. It counts as physicochemical.
The subject of series [1] is choroidal neovascularization (CNV). Nature of the series: Matrigel subretinal injection model of choroidal neovascularization (CNV), Vessel Paint staining and fluorescence microscopy. It is filed as in vivo, Sprague-Dawley rats. As to the method: In search of effective treatments for CNV, a simple animal model was created by injecting 2-3µl Matrigel™ to the subretinal space of adult Sprague-Dawley rats using a 33-gauge needle connected to a 10µl Hamilton microsyringe. A week or more later the animals were sacrificed by CO2 inhalation and perfused with Vessel Paint, a new visualization technique recently developed in the inventors' lab that enables screening agents, including chemical compounds and proteins, for their potential in inhibiting CNV (Wen, ARVO Abstract, March 2002). Vessel Painting comprises the use of a solution containing DiI, followed by 4% paraformaldehyde solution, and is discussed further below.
The anterior portion of the eye, including the cornea and lens, was removed, and the eyecup was imbedded in 5% agarose. […] Eye sections were examined by fluorescence microscopy for neovascularization in the Matrigel™ deposit. […] Protein leakage of the new vessels was detected by assessing color change in the Matrigel™ deposit after intravenous injection of Evan's Blue dye. […]
Adult Sprague-Dawley rats (n=22) were injected with Matrigel™ to the subretinal space. […] Tissue sections were examined by fluorescence microscopy. […]
Eyes were collected 10 days after injection and blood vessels were stained with Vessel Paint. […] CNV was examined by fluorescence microscopy and CNV index of each eye was calculated.

SMILES strings stand for the structures.

Regarding `CO[C@H]1C[C@@H]2CC[C@@H](C)[C@@](O)(O2)C(=O)C(=O)N2CCCC[C@H]2C(=O)O[C@H]([C@H](C)C[C@@H]2CC[C@@H](O)[C@H](OC)C2)CC(=O)[C@H](C)/C=C(\C)[C@@H](O)[C@@H](OC)C(=O)[C@H](C)C[C@H](C)/C=C/C=C/C=C/1C` [rapamycin], the solubility in water entry in “Solubility in water” was “not soluble in water”. For the same molecule, the “effect on the normal vasculature of the eye” value in series [1] (all experiments) is reported as “no discernable effect”.
`C=CC[C@@H]1/C=C(\C)C[C@H](C)C[C@H](OC)[C@H]2O[C@@](O)(C(=O)C(=O)N3CCCC[C@H]3C(=O)O[C@H](/C(C)=C/[C@@H]3CC[C@@H](O)[C@H](OC)C3)[C@H](C)[C@@H](O)CC1=O)[C@H](C)C[C@@H]2OC` [FK506]: the solubility in water result in “Solubility in water” is on record as “not water soluble”. For the same molecule, in series [1] (suspension in Matrigel 10 μg/μl, 1.2 μl subretinal, 10 days after injection), the “CNV index (mean)” value was “Mean = 12.67 (n = 6)”.
